Test results taken from patent US20030104945A1, “2,4-Diamino-1,3,5-triazines, their preparation, and their use as herbicides and plant growth regulators” (priority 2001, published 2003).

Columns and labels:
Assay type in all cases: in vivo
[1] = system: harmful plants such as Sinapis alba, Echinochloa crus-galli, Lolium multiflorum, Stellaria media, Cyperus iria, Amaranthus retroflexus, Setaria viridus and …; assay: Post-emergence herbicidal action (greenhouse pot test); settings: three-leaf stage, application rate of 1 kg and less of active substance per hectare, scored after approx. 3 to 4 weeks vs untreated controls
Method: Seeds or rhizome sections of monocotyledonous and dicotyledonous weeds are placed in sandy loam soil in plastic pots, covered with soil and grown in the greenhouse under good growth conditions. Three weeks after sowing, the experimental plants are treated at the three-leaf stage. The compounds according to the invention, which are formulated as wettable powders or as emulsion concentrates, are sprayed at various rates onto the green plant organs at an application rate of 600 to 800 l of water per ha (converted). After the experimental plants have remained in the greenhouse for approx. 3 to 4 weeks under optimal growth conditions, the effect of the compositions is scored visually in comparison with untreated controls. The substances according to the invention also have a good herbicidal action against a broad spectrum of economically important grass weeds and broad-leaved weeds when applied post-emergence.

[2] = system: harmful plants which are typical of rice crops such as, for example, Cyperus monti, Echinochloa crus-galli and Sagittaria pygmaea; assay: Activity against harmful plants in rice (paddy rice conditions); settings: poured into paddy water at various dosages; scored about three weeks after application vs untreated controls; note: test concentration or dose not given here
Method: Transplanted and seeded rice and typical grass weeds and broad-leaved weeds in rice crops are grown in the greenhouse under paddy rice conditions (depth of the paddy water: 2-3 cm) in sealed plastic pots until they have reached the three-leaf stage (Echinochloa crus-galli 1.5-leaf). They are then treated with the compounds according to the invention. To this end, the formulated active substances are suspended, dissolved or emulsified in water and the product is poured into the paddy water of the test plants at various dosages. After the treatment has been carried out thus, the test plants are placed in the greenhouse under optimal growth conditions and kept like this over the entire experimental period.
About three weeks after application, the evaluation is carried out by is of visually scoring the plant damage in comparison with untreated controls.

[3] = system: harmful plants such as Stellaria media, Lolium multiflorum, Amaranthus retroflexus, Sinapis alba, Avena sativa and Setaria viridis; assay: Pre-emergence herbicidal action (greenhouse pot test); settings: application rate of 1 kg or less active substance per hectare, scored after 3 to 4 weeks vs untreated controls
Excerpt: Seeds and rhizome sections of monocotyledonous and dicotyledonous harmful plants are placed in sandy loam in plastic pots and covered with soil. The compounds according to the invention which are formulated in the form of wettable powders or emulsion concentrates at various rates, are then applied to the surface of the covering soil as aqueous suspension or emulsion at an application rate of 600 to 800 l of water per ha (converted).
After the treatment, the pots are placed in the greenhouse and kept under good growth conditions for the weeds. Visual scoring of the plant damage or the adverse effect on emergence is done after the test plants have emerged after an experimental period of 3 to 4 weeks in comparison with untreated controls.

CC(F)c1nc(N)nc(NC(C2CC2)[C@@H]2C[C@H]2c2ccccc2)n1 (relative stereo) [Example 3-3]
very good herbicidal activity: herbicidal activity, visual scoring [1] | herbicidal activity, visual scoring of plant damage [2] | herbicidal activity, visual scoring of plant damage or adverse effect on emergence [3]

CCC(F)c1nc(NC=O)nc(NC(CC2CC2)[C@@H]2C[C@H]2c2ccccc2)n1 (relative stereo) [Example 5-4]
very good herbicidal activity: herbicidal activity, visual scoring [1] | herbicidal activity, visual scoring of plant damage [2] | herbicidal activity, visual scoring of plant damage or adverse effect on emergence [3]
